SMILES strings stand for the structures. Activity calls are given as the source filed them. How the calls were made is not given here.

A word on the EC50: it is the concentration that produces a half-maximal response.

The target of the assay is Mu-type opioid receptor (Homo sapiens) (UniProt P35372). The experiment in a line: mu-delta opioid heterodimer formation enhancers – cell-based, luminescence, dose response, set 2, late-stage follow-up (AID 651762). The following applies: luminescence complementation.
Sequence of Mu-type opioid receptor (Homo sapiens) (P35372 whole entry, looked up): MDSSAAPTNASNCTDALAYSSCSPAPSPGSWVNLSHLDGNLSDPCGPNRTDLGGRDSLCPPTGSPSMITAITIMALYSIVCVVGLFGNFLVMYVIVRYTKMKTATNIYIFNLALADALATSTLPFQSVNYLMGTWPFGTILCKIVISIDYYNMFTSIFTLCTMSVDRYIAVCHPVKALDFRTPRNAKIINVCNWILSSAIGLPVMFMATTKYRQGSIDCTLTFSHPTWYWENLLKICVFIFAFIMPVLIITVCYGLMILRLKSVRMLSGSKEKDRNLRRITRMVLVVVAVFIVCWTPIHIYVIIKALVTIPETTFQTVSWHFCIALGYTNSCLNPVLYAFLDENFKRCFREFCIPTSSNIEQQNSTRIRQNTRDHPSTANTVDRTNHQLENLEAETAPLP
For the compound `CCOC(=O)C1(Cc2cccc(OC)c2)CCCN(Cc2ccc(NC(C)=O)cc2)C1` (stereo not drawn), the EC50 is > 50 µM (inactive).
To `CCOC(=O)C1(CCc2ccccc2)CCN(Cc2ccncc2)CC1` belongs > 50 µM (inactive); to `C=Cc1ccc(C(=O)N2CCC(CCc3ccccc3)(C(=O)OCC)CC2)cc1`, > 50 µM (inactive).
The figure for `CCOC(=O)C1(CCc2ccccc2)CCCN(Cc2ccc(N3CCNC3=O)cc2)C1` (stereo not drawn) is > 50 µM (inactive); for `CC(=O)Nc1ccc(CN2CCCC(CO)(CCc3ccccc3)C2)cc1` (stereo not drawn) it is 5.16 µM; for `CCOC(=O)C1(Cc2ccc(OC)cc2)CCN(C(=O)c2ccc(N(C)C)cc2)CC1` it is > 50 µM (inactive).
With `CCOC(=O)C1(CCc2ccccc2)CCN(Cc2ccc(C#CC(C)(C)O)cc2)CC1`, the EC50 is > 50 µM (inactive).
Take `CCOC(=O)C1(CCc2ccccc2)CCN(Cc2c(O)cccc2OC)CC1`: the EC50 is 0.605 µM.
For `CCOC(=O)C1(CCc2ccccc2)CCN(Cc2ccc(OC)cc2)CC1`, the EC50 is 0.206 µM.
To `CCOC(=O)C1(CCc2ccccc2)CCN(C(=O)Nc2ccc(C)cc2C)CC1` belongs > 50 µM (inactive); to `CCOC(=O)C1CCN(C(=O)c2ccc(N(C)C)cc2)CC1`, > 50 µM (inactive); to `CCOC(=O)C1(CCc2ccccc2)CCN(Cc2ccc(C(=O)OC)cc2)CC1`, > 50 µM (inactive).
On to `CCOC(=O)C1CCN(Cc2ccc(NC(C)=O)cc2)CC1`, for which the EC50 was > 50 µM (inactive).
To `CCOC(=O)C1CCN(CCC(=O)Nc2ccc(C)cc2)CC1` belongs > 50 µM (inactive); to `CCOC(=O)C1(CCOC)CCN(Cc2ccc(N(C)c3ccccc3)cc2)CC1`, > 50 µM (inactive); to `CCOC(=O)C1(CCc2ccccc2)CCN(Cc2ccc(O)cc2)CC1`, > 50 µM (inactive).
To `O=C(O)C1CCCCC1C(=O)Nc1ccc(CN2CCCCC2)cc1` (stereo not drawn) belongs > 50 µM (inactive); to `CCOC(=O)C1CCCCN1Cc1ccc(NC(C)=O)cc1` (stereo not drawn), > 50 µM (inactive); to `CCOC(=O)C1(CC2CC2)CCN(Cc2ccc(NC(C)=O)cc2)CC1`, > 50 µM (inactive).
For `C=Cc1ccc(C(=O)N2CCC(CCCc3ccccc3)(C(=O)OCC)CC2)cc1`, the EC50 was > 50 µM (inactive).
The figure for `CCOC(=O)C1(CCOC)CCN(Cc2ccc(NC(C)=O)cc2)CC1` is > 50 µM (inactive); for `CCOC(=O)C1(CCOC)CCCN(Cc2ccc(NC(C)=O)cc2)C1` (stereo not drawn) it is > 50 µM (inactive); for `CCOC(=O)C1(Cc2ccccc2Cl)CCN(Cc2ccc(NC(C)=O)cc2)CC1` it is 0.394 µM.
With `CCOC(=O)C1(Cc2ccccc2C)CCCN(Cc2ccc(NC(C)=O)cc2)C1` (stereo not drawn), the EC50 was > 50 µM (inactive).
In the case of `CCOC(=O)C1CCN(Cc2ccc(N(C)C)cc2)CC1`, the EC50 is > 50 µM (inactive).
To `CCOC(=O)C1(CCOc2ccccc2)CCCN(Cc2ccc(NC(C)=O)cc2)C1` (stereo not drawn) belongs > 50 µM (inactive).
As to `CCOC(=O)C1(CC2CC2)CCN(C(=O)c2ccc(N3CCCCC3)cc2)CC1`, the EC50 is > 50 µM (inactive).
`CCOC(=O)C1(Cc2ccccc2)CCCN(Cc2ccc(NC(C)=O)cc2)C1` (stereo not drawn): the EC50 was > 50 µM (inactive).

These data come from PubChem BioAssay AID651762 (The Scripps Research Institute Molecular Screening Center, 2012).
